The target in assay [1] is T1, Tyrosine-protein phosphatase non-receptor type 2 (Homo sapiens, UniProt P17706).
T1 sequence (P17706 whole entry): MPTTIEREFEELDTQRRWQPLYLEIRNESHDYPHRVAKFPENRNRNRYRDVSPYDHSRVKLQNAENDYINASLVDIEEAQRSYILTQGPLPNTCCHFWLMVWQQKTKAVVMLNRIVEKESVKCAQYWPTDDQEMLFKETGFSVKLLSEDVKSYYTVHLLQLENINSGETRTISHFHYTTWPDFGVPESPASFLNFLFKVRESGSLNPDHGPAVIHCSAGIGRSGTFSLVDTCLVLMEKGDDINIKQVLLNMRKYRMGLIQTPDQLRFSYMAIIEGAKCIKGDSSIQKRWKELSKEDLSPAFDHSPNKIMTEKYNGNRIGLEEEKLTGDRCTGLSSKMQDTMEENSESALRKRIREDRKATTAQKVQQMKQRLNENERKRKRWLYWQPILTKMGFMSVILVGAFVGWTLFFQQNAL
As to the kind of experiment: Inhibition of TCPTP by pNPP assay.

The target in assay [2] is T2, Tyrosine-protein phosphatase non-receptor type 1 (Homo sapiens, UniProt P18031).
T2 sequence (P18031 whole entry): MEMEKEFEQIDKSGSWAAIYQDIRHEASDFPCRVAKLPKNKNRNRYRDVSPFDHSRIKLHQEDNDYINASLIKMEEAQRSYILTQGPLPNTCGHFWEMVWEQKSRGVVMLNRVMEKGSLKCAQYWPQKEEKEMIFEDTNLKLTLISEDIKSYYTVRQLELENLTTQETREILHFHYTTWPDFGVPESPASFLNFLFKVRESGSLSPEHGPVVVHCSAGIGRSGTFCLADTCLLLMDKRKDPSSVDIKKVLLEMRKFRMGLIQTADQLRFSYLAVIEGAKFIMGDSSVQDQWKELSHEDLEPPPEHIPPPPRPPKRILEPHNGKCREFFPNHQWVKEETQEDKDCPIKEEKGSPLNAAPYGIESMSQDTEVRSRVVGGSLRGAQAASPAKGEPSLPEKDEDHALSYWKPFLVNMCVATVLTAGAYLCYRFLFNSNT
The experiment in a line: Inhibition of PTP1B by pNPP assay.

Where only a bound is given, the exact number is not on record here.

As a reminder, the IC50 is the concentration needed to halve the response being measured. A high value points to weaker potency. As to `C=C1CC[C@]2(C)[C@H]3CC=C4[C@@H]5CC(C)(C)CC[C@]5(C(=O)O)CC[C@@]4(C)[C@]3(C)CC[C@H]2C1(C)C`, the IC50 stood at 2530 nM in assay [1] and 2850 nM in assay [2].
Regarding `COc1ccc(CC(NC(=O)CCCC[C@]23CCC(C)(C)C[C@H]2C2=CC[C@@H]4[C@@]5(C)CC[C@H](O)C(C)(C)[C@@H]5CC[C@@]4(C)[C@]2(C)CC3)C(=O)O)cc1` (stereo partly drawn), the IC50 in assay [1] amounted to 550 nM; in assay [2], 600 nM.
With `COc1ccc(CC(NC(=O)CCCC[C@]23CCC(C)(C)C[C@H]2C2=CC[C@@H]4[C@@]5(C)CC[C@H](O)C(C)(C)[C@@H]5CC[C@@]4(C)[C@]2(C)CC3)C(=O)O)cc1OC` (stereo partly drawn), the IC50 was 700 nM in assay [1] and 820 nM in assay [2].
Take `CC1(C)CC[C@]2(CCCCC(=O)NC(Cc3ccc(Cl)cc3)C(=O)O)CC[C@]3(C)C(=CC[C@@H]4[C@@]5(C)CC[C@H](O)C(C)(C)[C@@H]5CC[C@]43C)[C@@H]2C1` (stereo partly drawn): the results for the IC50 in assay [1] and in assay [2] were 480 nM and 610 nM, respectively.
Turning to `CC1(C)CC[C@]2(C(=O)OCc3ccccc3)CC[C@]3(C)C(=CC[C@@H]4[C@@]5(C)CC[C@H](O)C(C)(C)[C@@H]5CC[C@]43C)[C@@H]2C1`, half-maximal inhibition in assay [2] (IC50) required 8610 nM.
For the compound `C[C@H]1[C@H](C)CC[C@]2(C)CC[C@]3(C)C(=CC[C@@H]4[C@@]5(C)CC[C@@H](O)[C@](C)(C(=O)O)[C@@H]5CC[C@]43C)[C@H]12` [BOSWELLIC ACID], the IC50 in assay [1] and in assay [2] was greater than 20000 nM each time.
Turning to `CC1(C)CC[C@]2(C(=O)O)CC[C@]3(C)C(=CC[C@@H]4[C@@]5(C)CC[C@H](OCc6cccc(C(=O)O)c6)C(C)(C)[C@@H]5CC[C@]43C)[C@@H]2C1`, the IC50 stood at 490 nM in assay [1] and 620 nM in assay [2].
For `C[C@H]1[C@H](C)CC[C@]2(C(=O)O)CC[C@]3(C)C(=CC[C@@H]4[C@@]5(C)C[C@@H](O)[C@H](O)[C@@](C)(CO)[C@@H]5CC[C@]43C)[C@H]12` [ASIATIC ACID] the same measures were greater than 20000 nM and greater than 20000 nM.
The like results for `CC1(C)CC[C@]2(C)CC[C@]3(C)[C@H](CC[C@@H]4[C@@]5(C)CC[C@H](O)C(C)(C)[C@@H]5CC[C@]43C)[C@@H]2C1` were, in that order, greater than 20000 nM and greater than 20000 nM.
In the case of `CC1(C)CC[C@]2(C(=O)O)CC[C@]3(C)C(=CC[C@@H]4[C@@]5(C)CC[C@H](OCc6ccccc6)C(C)(C)[C@@H]5CC[C@]43C)[C@@H]2C1`, the IC50 stood at 2750 nM in assay [1] and 2670 nM in assay [2].
In the case of `CC1(C)CC[C@]2(C(=O)O)CC[C@]3(C)C(=CC[C@@H]4[C@@]5(C)CC[C@H](OCc6ccccc6C(=O)O)C(C)(C)[C@@H]5CC[C@]43C)[C@@H]2C1`, the figures for the IC50 in assay [1] and in assay [2] were 2220 nM and 2720 nM, respectively.
For `CSCC[C@H](NC(=O)CCCC[C@]12CCC(C)(C)C[C@H]1C1=CC[C@@H]3[C@@]4(C)CC[C@H](O)C(C)(C)[C@@H]4CC[C@@]3(C)[C@]1(C)CC2)C(=O)O` the same measures were 750 nM and 550 nM.
The like results for `Cc1ccccc1CC(NC(=O)CCCC[C@]12CCC(C)(C)C[C@H]1C1=CC[C@@H]3[C@@]4(C)CC[C@H](O)C(C)(C)[C@@H]4CC[C@@]3(C)[C@]1(C)CC2)C(=O)O` (stereo partly drawn) were, in that order, 500 nM and 550 nM.
For `CC1(C)CC[C@]2(CCCCC(=O)N[C@@H](Cc3cnc[nH]3)C(=O)O)CC[C@]3(C)C(=CC[C@@H]4[C@@]5(C)CC[C@H](O)C(C)(C)[C@@H]5CC[C@]43C)[C@@H]2C1` the same measures were 4310 nM and 4620 nM.
As for `CC1(C)CC[C@]2(CCCCCCCCCCC(=O)O)CC[C@]3(C)C(=CC[C@@H]4[C@@]5(C)CC[C@H](O)C(C)(C)[C@@H]5CC[C@]43C)[C@@H]2C1`, the IC50 in assay [1] is 630 nM; in assay [2], 720 nM.
Compound `CC1(C)[C@@H](O)CC[C@]2(C)[C@H]3C(=O)C=C4[C@@H]5C[C@@](C)(C(=O)O)CC[C@]5(C)CC[C@@]4(C)[C@]3(C)CC[C@@H]12` [ENOXOLONE] returned an IC50 in assay [1] greater than 20000 nM.
As to `C[C@H]1[C@H](C)CC[C@]2(C)CC[C@]3(C)C(=CC(=O)[C@@H]4[C@@]5(C)CC[C@@H](O)[C@](C)(C(=O)O)[C@@H]5CC[C@]43C)[C@H]12` [11-KETO BOSWELLIC ACID], the IC50 was 9450 nM in assay [1] and 8040 nM in assay [2].
In the case of `CC1(C)CC[C@]2(C(=O)O)CC[C@]3(C)C(=CC[C@@H]4[C@@]5(C)CCCC(C)(C)[C@@H]5CC[C@]43C)[C@@H]2C1`, the IC50 in assay [1] came out at 3000 nM; in assay [2], 2610 nM.
The like results for `CC1(C)CC[C@]2(CCCCC(=O)N[C@@H](Cc3c[nH]c4ccccc34)C(=O)O)CC[C@]3(C)C(=CC[C@@H]4[C@@]5(C)CC[C@H](O)C(C)(C)[C@@H]5CC[C@]43C)[C@@H]2C1` were, in that order, 590 nM and 590 nM.
The like results for `O=C(O)C(=O)c1ccc(OCc2ccc(COc3ccc(C(=O)C(=O)O)cc3)cc2)cc1` were, in that order, 5350 nM and 5730 nM.
Take `COc1cccc(CC(NC(=O)CCCC[C@]23CCC(C)(C)C[C@H]2C2=CC[C@@H]4[C@@]5(C)CC[C@H](O)C(C)(C)[C@@H]5CC[C@@]4(C)[C@]2(C)CC3)C(=O)O)c1OC` (stereo partly drawn): the IC50 in assay [1] was 750 nM; in assay [2] it was 660 nM.
For `CC1(C)CC[C@]2(CCCCC(=O)NC(Cc3ccc(F)cc3)C(=O)O)CC[C@]3(C)C(=CC[C@@H]4[C@@]5(C)CC[C@H](O)C(C)(C)[C@@H]5CC[C@]43C)[C@@H]2C1` (stereo partly drawn) the same measures were 650 nM and 570 nM.
On to `CC1(C)CC[C@]2(C(=O)Nc3ccc(C(=O)O)cc3)CC[C@]3(C)C(=CC[C@@H]4[C@@]5(C)CC[C@H](O)C(C)(C)[C@@H]5CC[C@]43C)[C@@H]2C1`, for which the IC50 in assay [2] amounted to 3190 nM.
Same read-out and setting: with `CC1(C)CC[C@]2(C(N)=O)CC[C@]3(C)C(=CC[C@@H]4[C@@]5(C)CC[C@H](O)C(C)(C)[C@@H]5CC[C@]43C)[C@@H]2C1` the figure was 4760 nM; with `COC(=O)[C@]12CCC(C)(C)C[C@H]1C1=CC[C@@H]3[C@@]4(C)CC[C@H](O)C(C)(C)[C@@H]4CC[C@@]3(C)[C@]1(C)CC2` [METHYL OLEANOLATE], 4440 nM.
Regarding `CC1(C)CC[C@]2(CCCCC(=O)NC(Cc3ccccc3Cl)C(=O)O)CC[C@]3(C)C(=CC[C@@H]4[C@@]5(C)CC[C@H](O)C(C)(C)[C@@H]5CC[C@]43C)[C@@H]2C1` (stereo partly drawn), the results for the IC50 in assay [1] and in assay [2] were 550 nM and 560 nM, respectively.
`CC1(C)CC[C@]2(C(=O)O)CC[C@]3(C)C(=CC[C@@H]4[C@@]5(C)CC[C@H](OC(=O)C(=O)O)C(C)(C)[C@@H]5CC[C@]43C)[C@@H]2C1`: the values for the IC50 in assay [1] and in assay [2] were 4550 nM and 2860 nM, respectively.
`CC1(C)CC[C@]2(C(=O)NCC(=O)O)CC[C@]3(C)C(=CC[C@@H]4[C@@]5(C)CC[C@H](O)C(C)(C)[C@@H]5CC[C@]43C)[C@@H]2C1`: the IC50 in assay [2] is 15400 nM.
On the same count and under the same terms, with `CC1(C)CC[C@]2(C(=O)N[C@@H](CCC(=O)O)C(=O)O)CC[C@]3(C)C(=CC[C@@H]4[C@@]5(C)CC[C@H](O)C(C)(C)[C@@H]5CC[C@]43C)[C@@H]2C1` the figure was 16400 nM; with `CNC(=O)[C@]12CCC(C)(C)C[C@H]1C1=CC[C@@H]3[C@@]4(C)CC[C@H](O)C(C)(C)[C@@H]4CC[C@@]3(C)[C@]1(C)CC2`, 9200 nM.
Same read-out and setting: in the case of `CC1(C)CC[C@]2(C(=O)NCc3ccccc3)CC[C@]3(C)C(=CC[C@@H]4[C@@]5(C)CC[C@H](O)C(C)(C)[C@@H]5CC[C@]43C)[C@@H]2C1` it was 8100 nM.

The record behind these values is ChEMBL document CHEMBL1151785, “Oleanolic acid and its derivatives: new inhibitor of protein tyrosine phosphatase 1B with cellular activities” (Bioorg Med Chem, 2008).
